Molecules are shown by their SMILES. Where two headings read alike, the source gives them in different places.

Mortality data for 15 molecules are collected here from patent US6235754A, “Methods and compositions for protecting animals and humans against attack and infestation by arthropod and helminth parasites” (American Cyanamid Company, priority 1999, dated 2001).

This experiment concerns Ctenocephalides felis (cat flea). Nature of the experiment: Contact activity against the adult cat flea (Table I). Type of experiment: in vivo. The settings on record: topical. How it is done: This test is designed to evaluate the contact activity of test compounds against the adult cat flea. Test compounds are dissolved in 100% acetone to 300, 100, 10 and 1 ppm. 100 μL of each of these dilutions is added to the bottom of a 20 mL glass scintillation vial with a pipettor. The vial is allowed to dry under a fume hood for 15 minutes. The bottom of the vial measures 4.909 cm^2. The amount of test compound applied by each dilution equals 6.2, 2.0, 0.2 and 0.02 μg/cm^2, respectively. Newly emerged adult cat fleas are anesthetized with CO2 to immobilize, and are counted into the scintillation vials with forceps. Five fleas are placed in each vial. These tests are done in replicates of two or three so that there are 10 to 15 fleas per rate/compound. Mortality readings are taken 4 and 24 hours after placing the fleas in the vials. […] Percent mortality is then calculated for each treatment.

[1] abbreviates: 4 h, read-out: 4 Hour % Mortality.
Where [2] appears, read: 24 h, read-out: 24 Hour % Mortality.

As for `CCOc1ccc(C(/C(F)=C/Cc2cccc(Oc3ccccc3)c2)C2CC2)cc1` (racemic) [Compound 14, 1-[1-(p-Ethoxyphenyl)-2-fluoro-4-(m-phenoxyphenyl)-2-butenyl]cyclopropane, (R,S)-(Z)-], under setting [1], the mortality (in general, the share of the test organisms that died) at 0.02 µg/cm2 turned out to be 10%; the mortality at 0.2 µg/cm2 worked out at 20%; the mortality at 2 µg/cm2 amounted to 20%; the mortality at 6.2 µg/cm2 was 50%. Also, under setting [2], the mortality at 0.02 µg/cm2 came to 30%, the mortality at 0.2 µg/cm2 is 60%, the mortality at 2 µg/cm2 was 100% and the mortality at 6.2 µg/cm2 worked out at 100%.
Consider `F/C(=C\Cc1cccc(Oc2ccccc2)c1)C(c1ccc(F)cc1)C1CC1` (racemic) [Compound 15, 1-[2-Fluoro-1-(p-fluorophenyl)-4-(m-phenoxyphenyl)-2-butenyl]cyclopropane, (R,S)-(Z)-], for which, under setting [1], the mortality at 0.2 µg/cm2 is 44%, the mortality at 2 µg/cm2 came out at 80% and the mortality at 6.2 µg/cm2 is 100%. Also, under setting [2], the mortality at 0.2 µg/cm2 was 78%, the mortality at 2 µg/cm2 came out at 100% and the mortality at 6.2 µg/cm2 was 100%.
With `CCOc1ccc(C(/C(F)=C/Cc2ccc(F)c(Oc3ccc(F)cc3)c2)C2CC2)cc1` (racemic) [Compound 16, 1-{1-(p-Ethoxyphenyl)-2-fluoro-4-[4-fluoro-3-(p-fluorophenoxy)phenyl]-2-butenyl}cyclopropane, (R,S)-(Z)-], under setting [1], the mortality at 0.02 µg/cm2 was 0%, the mortality at 0.2 µg/cm2 was found to be 20%, the mortality at 2 µg/cm2 turned out to be 71% and the mortality at 6.2 µg/cm2 came to 100%. Moreover, under setting [2], the mortality at 0.02 µg/cm2 came to 60%, the mortality at 0.2 µg/cm2 turned out to be 50%, the mortality at 2 µg/cm2 was found to be 100% and the mortality at 6.2 µg/cm2 is 100%.
`CC(C)(C(F)=CCc1cccc(Oc2ccccc2)c1)c1ccc(Cl)cc1` [Compound 1, 4-(p-Chlorophenyl)-3-fluoro-4-methyl-1-(m-phenoxyphenyl)-2-pentene, (Z)- and (E)-(95:5)]: under setting [1], the mortality at 0.02 µg/cm2 stood at 5%, the mortality at 0.2 µg/cm2 amounted to 5%, the mortality at 2 µg/cm2 was 10% and the mortality at 6.2 µg/cm2 is 0%. Besides, under setting [2], the mortality at 0.02 µg/cm2 turned out to be 10%, the mortality at 0.2 µg/cm2 is 20%, the mortality at 2 µg/cm2 stood at 35% and the mortality at 6.2 µg/cm2 is 53%.
Take `CC(C)(/C(F)=C/Cc1ccc(F)c(Oc2ccccc2)c1)c1ccc(Cl)cc1` [Compound 2, 4-(p-Chlorophenyl)-3-fluoro-1-(4-fluoro-3-phenoxyphenyl)-4-methyl-2-pentene, (Z)-]: under setting [1], the mortality at 0.02 µg/cm2 is 5%, the mortality at 0.2 µg/cm2 is 0%, the mortality at 2 µg/cm2 was determined as 0% and the mortality at 6.2 µg/cm2 amounted to 22%. For the same molecule, under setting [2], the mortality at 0.02 µg/cm2 was 10%, the mortality at 0.2 µg/cm2 stood at 32%, the mortality at 2 µg/cm2 came out at 58% and the mortality at 6.2 µg/cm2 came to 100%.
As to `F/C(=C\Cc1cccc(Oc2ccccc2)c1)C1(c2ccc(Cl)cc2)CC1` [Compound 3, 1-(p-Chlorophenyl)-1-[1-fluoro-3-(m-phenoxyphenyl)propenyl]cyclopropane, (Z)-], under setting [1], the mortality at 0.02 µg/cm2 was 5%, the mortality at 0.2 µg/cm2 came out at 0%, the mortality at 2 µg/cm2 came out at 7% and the mortality at 6.2 µg/cm2 was 0%. For the same molecule, under setting [2], the mortality at 0.02 µg/cm2 came out at 5%, the mortality at 0.2 µg/cm2 is 7%, the mortality at 2 µg/cm2 is 17% and the mortality at 6.2 µg/cm2 is 13%.
For the molecule `F/C(=C\Cc1ccc(F)c(Oc2ccccc2)c1)C1(c2ccc(Cl)cc2)CC1` [Compound 4, 1-(p-Chlorophenyl)-1-[1-fluoro-3-(4-fluoro-3-phenoxyphenyl)propenyl]cyclopropane, (Z)-], under setting [1], the mortality at 0.02 µg/cm2 amounted to 5%, the mortality at 0.2 µg/cm2 is 7%, the mortality at 2 µg/cm2 stood at 0% and the mortality at 6.2 µg/cm2 was 3%. For the same molecule, under setting [2], the mortality at 0.02 µg/cm2 came out at 16%, the mortality at 0.2 µg/cm2 stood at 14%, the mortality at 2 µg/cm2 turned out to be 21% and the mortality at 6.2 µg/cm2 amounted to 28%.
In the case of `F/C(=C\Cc1cccc(Oc2ccccc2)c1)C(c1ccc(Cl)cc1)C1CC1` (stereo not shown) [Compound 6, 1-[1-(p-Chlorophenyl)-2-fluoro-4-(m-phenoxyphenyl)-2-butenyl]cyclopropane, (Z)-], under setting [1], the mortality at 0.02 µg/cm2 was found to be 0%, the mortality at 0.2 µg/cm2 came to 0%, the mortality at 2 µg/cm2 turned out to be 56% and the mortality at 6.2 µg/cm2 is 80%. In addition, under setting [2], the mortality at 0.02 µg/cm2 is 8%, the mortality at 0.2 µg/cm2 is 28%, the mortality at 2 µg/cm2 is 88% and the mortality at 6.2 µg/cm2 stood at 100%.
Consider `CC(C)C(/C(F)=C/Cc1ccc(F)c(Oc2ccccc2)c1)c1ccc(Cl)cc1` (stereo not shown) [Compound 7, 4-(p-Chlorophenyl)-3-fluoro-1-(4-fluoro-3-phenoxyphenyl)-5-methyl-2-hexene, (Z)-], for which, under setting [1], the mortality at 0.02 µg/cm2 was determined as 0%, the mortality at 0.2 µg/cm2 was found to be 0%, the mortality at 2 µg/cm2 turned out to be 0% and the mortality at 6.2 µg/cm2 was 0%. Moreover, under setting [2], the mortality at 0.02 µg/cm2 came out at 10%, the mortality at 0.2 µg/cm2 worked out at 0%, the mortality at 2 µg/cm2 came out at 0% and the mortality at 6.2 µg/cm2 was determined as 100%.
With `CC(C)C(/C(F)=C/Cc1cccc(Oc2ccccc2)c1)c1ccc(Cl)cc1` (stereo not shown) [Compound 8, 4-(p-Chlorophenyl)-3-fluoro-5-methyl-1-(m-phenoxyphenyl)-2-hexene, (Z)-], under setting [1], the mortality at 0.02 µg/cm2 was 0%, the mortality at 0.2 µg/cm2 amounted to 0%, the mortality at 2 µg/cm2 worked out at 0% and the mortality at 6.2 µg/cm2 was 0%. In addition, under setting [2], the mortality at 0.02 µg/cm2 worked out at 10%, the mortality at 0.2 µg/cm2 was 0%, the mortality at 2 µg/cm2 is 0% and the mortality at 6.2 µg/cm2 worked out at 20%.
Turning to `CC(C)(C)C(/C(F)=C/Cc1cccc(Oc2ccccc2)c1)c1ccc(Cl)cc1` (stereo not shown) [Compound 9, 4-(p-Chlorophenyl)-3-fluoro-5-methyl-1-(m-phenoxyphenyl)-5-methyl-2-hexene, (Z)-], under setting [1], the mortality at 0.02 µg/cm2 was determined as 0%, the mortality at 0.2 µg/cm2 came to 0%, the mortality at 2 µg/cm2 amounted to 30% and the mortality at 6.2 µg/cm2 stood at 20%. Under setting [2], the mortality at 0.02 µg/cm2 stood at 40%, the mortality at 0.2 µg/cm2 is 70%, the mortality at 2 µg/cm2 stood at 70% and the mortality at 6.2 µg/cm2 is 80%.
Regarding `CCOc1ccc(C(/C(F)=C/Cc2cccc(Oc3ccccc3)c2)C(C)C)cc1` (stereo not shown) [Compound 11, 4-(p-Ethoxyphenyl)-3-fluoro-5-methyl-1-(m-phenoxyphenyl)-2-hexene, (Z)-], under setting [1], the mortality at 0.02 µg/cm2 came out at 0%, the mortality at 0.2 µg/cm2 was determined as 10%, the mortality at 2 µg/cm2 worked out at 30% and the mortality at 6.2 µg/cm2 came to 60%. Besides, under setting [2], the mortality at 0.02 µg/cm2 was 10%, the mortality at 0.2 µg/cm2 is 40%, the mortality at 2 µg/cm2 turned out to be 90% and the mortality at 6.2 µg/cm2 was determined as 90%.
`CCOc1ccc(C(/C(F)=C/Cc2cccc(Oc3ccc(F)cc3)c2)C(C)C)cc1` (stereo not shown) [Compound 12, 4-(p-Ethoxyphenyl)-3-fluoro-1-[m-(p-fluorophenoxy)phenyl]-5-methyl-2-hexene, (Z)-]: under setting [1], the mortality at 0.02 µg/cm2 was 0%, the mortality at 0.2 µg/cm2 was determined as 0%, the mortality at 2 µg/cm2 was found to be 10% and the mortality at 6.2 µg/cm2 stood at 33%. In addition, under setting [2], the mortality at 0.02 µg/cm2 was 0%, the mortality at 0.2 µg/cm2 worked out at 10%, the mortality at 2 µg/cm2 amounted to 30% and the mortality at 6.2 µg/cm2 was determined as 78%.
For `F/C(=C\Cc1cccc(Oc2ccc(F)cc2)c1)C(c1ccc(Cl)cc1)C1CC1` (stereo not shown) [Compound 13, 1-{1-(p-Chlorophenyl)-2-fluoro-4-[m-(p-fluorophenoxy)phenyl]-2-butenyl}cyclopropane, (Z)-], under setting [1], the mortality at 0.02 µg/cm2 turned out to be 0%, the mortality at 0.2 µg/cm2 was 0%, the mortality at 2 µg/cm2 was found to be 5% and the mortality at 6.2 µg/cm2 was 10%. Also, under setting [2], the mortality at 0.02 µg/cm2 was 5%, the mortality at 0.2 µg/cm2 was found to be 33%, the mortality at 2 µg/cm2 turned out to be 67% and the mortality at 6.2 µg/cm2 turned out to be 95%.
Turning to `CC(C)C(/C(F)=C(\F)Cc1ccc(F)c(Oc2ccccc2)c1)c1ccc(OC(F)(F)F)cc1` (stereo not shown) [Compound 17, 2,3-Difluoro-1-(4-fluoro-3-phenoxyphenyl)-5-methyl-4-[p-(trifluoromethoxy)phenyl]-2-hexene, (E)-], under setting [1], the mortality at 0.02 µg/cm2 turned out to be 0%, the mortality at 0.2 µg/cm2 is 10%, the mortality at 2 µg/cm2 worked out at 10% and the mortality at 6.2 µg/cm2 turned out to be 10%. Moreover, under setting [2], the mortality at 0.02 µg/cm2 came to 20%, the mortality at 0.2 µg/cm2 is 40%, the mortality at 2 µg/cm2 amounted to 50% and the mortality at 6.2 µg/cm2 was determined as 90%.
